The data set is described as follows: Octanol-water partition coefficient, log P by reverse phase HPLC method. Format: physicochemical.

Structures are written as SMILES.

As usually defined, the logP is the decadic logarithm of the partition coefficient of the neutral form, usually between octanol and water. A low value points to a more hydrophilic compound. For `CC(=O)N(Cc1ccccc1O[11CH3])c1cnccc1Oc1ccccc1`, the log partition coefficient (logP) was 2.21.
Then `Cc1ccc2c(c1)c1c(n2CCc2ccc(C)nc2)CCN([11CH3])C1`, with 2.53.

Values taken from ChEMBL document CHEMBL1156990, “[(11)C]Dimebon, radiosynthesis and lipophilicity of a new potential PET agent for imaging of Alzheimer's disease and Huntington's disease” (Bioorg Med Chem Lett, 2010).
